These results are taken from patent US20260294922A1, “Inhibitors of JUN N-Terminal Kinases (JNK1, JNK2, and/or JNK3) and Mitogen-Activated Protein Kinases (MAPK8, MAPK9, and/or MAPK10) and Methods of Using Same” (Baylor College of Medicine, priority 2023, published 2026).

The structures appear in SMILES notation. Values after ≈ are worked out from the molar mass of the structure shown. “Also recorded” adds a separate entry of the source.

As usually defined, the IC50 is the concentration that gives 50% inhibition. The term solubility denotes how much of the substance goes into solution per volume. A higher solubility goes with much dissolved substance. By half-life is commonly meant the time in which the quantity being followed falls by half. The low end stands for fast loss, the high end for slow loss. A word on the Kd: it is the constant that tells how readily two partners part at equilibrium.

Data set [1] concerns the target T1, JNK1 (Homo sapiens, UniProt P45983). The data set is described as follows: Promega NanoBRET intracellular target engagement (tracer K10 displacement), JNK1. It is filed as cell-based. (In BRET a luciferase serves as donor, and the signal depends on an acceptor being close.)
A short description of data set [2]: Solubility.
Data set [3] is described as follows: In vitro metabolism in human liver microsomes. The following applies: human, microsomes. The protocol:
(§1) The target product profile seeks to deliver JNK inhibitor as a once daily oral administration. To prioritize compounds for further development, in vitro metabolism of several CDD JNK inhibitors were determined to approximate the plasma half-life and the rate of metabolism of the compounds in vivo.
A general note: Liver microsomes are a subcellular fraction often used to study metabolism.

The target in data set [4] is T1, JNK1. The data set is described as follows: JNK1 kinase (intrinsic ATPase, Kinase-Glo) assay. It is filed as biochemical. In outline: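 Full-length construct not stated; kinases hydrolyse ATP without peptide substrate, reaction run 30 or 60 min at 30° C, remaining ATP read by Kinase-Glo luminescence with no-kinase controls. Apparent Ki from normalized fractional activities fitted to modified Morrison tight-binding equation; orthogonal LanthaScreen binding assay gave IC50.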
A general note: Kinase-Glo measures the ATP left after a reaction by luminescence.

The nature of data set [5]: In vitro metabolism in mouse liver microsomes. The note with it: mouse, microsomes. The protocol: as §1
Data set [6] deals with T2, JNK2 (Homo sapiens, UniProt P45984). The data set is described as follows: JNK2 kinase (intrinsic ATPase, Kinase-Glo) assay. The data set is classed as biochemical. The note with it: Table 3a; read-out: Kd JNK2.
Data set [7] concerns the target T2, JNK2. The data set is described as follows: Promega NanoBRET intracellular target engagement (tracer K10 displacement), JNK2. The data set is classed as cell-based.
In data set [8] the test system is 12Z endometriotic epithelial cells. Nature of the data set: IL-1β-stimulated pro-inflammatory gene expression (qPCR) in 12Z cells. The data set is classed as cell-based, human. The following applies: relative to bentamapimod. From the text: These studies indicate that NanoBRET assays are an innovative technical platform to measure target engagement of CDD JNK inhibitors with the target JNK1, JNK2 or JNK3. As further evidence that JNK inhibitors address disease-relevant endpoints, biological responses of JNK inhibitors are provided herein, as measured in target tissue cellular models. 12Z immortalized endometriotic epithelial cells and patient-derived endometriotic stromal cells have been cultured with reference compound bentamapimod, CDD-2628, and CDD-2728. To exemplify the effects of CDD-2628 and CDD-2728 in the endometrial cell cultures, gene expression was measured using qPCR (expressed as fold-change relative to GAPDH, a housekeeping gene that is not affected by culture treatment effects) that reflect synthesis of inflammatory lipids (PTGS2), transformation of cells to a more migration and invasive potential (MMP-3) and chemoattractant cytokines to recruit pro-inflammatory immune cells (IL-6, IL-8).
In the culture systems employed in FIGS. 12A-12J, FIGS. 13A-13B, FIGS. 14A-14H, FIGS. 15A-15H, and FIGS. 16A-16F, the treatment of cells with IL-1β is used to mimic the peritoneal environment where IL-1β is most frequently measured at higher concentrations in patients with endometriosis (0.1 ng/mL-1 ng/mL) than in unaffected women (<0.01 ng/mL). The use of IL-1β to mimic the pro-inflammatory environment is a common method in cellular assays for endometriosis research. Although the concentrations of IL-1β in these cell cultures are higher than measured in peritoneal fluid, there are multiple other pro-inflammatory cytokines in peritoneal fluid that contribute to the pro-inflammatory environment.
Specifically, 12Z cells were plated at a density of 1×10^5 cells/well in a 12-well tissue culture plate, serum-starved overnight (17-18 h), pre-treated with vehicle (DMSO) or JNK inhibitor for 30 minutes, then stimulated with 10 ng/ml IL-1β in the presence or absence of the JNK inhibitors for 6 hours. After the 6-hour treatment, mRNA was extracted from the cells using the Qiagen RNEasy mini isolation kit and […] of mRNA was reverse transcribed into cDNA using the qScript cDNA Supermix (Quanta Biosciences). cDNA was amplified using SYBR Green Master Mix (Applied Biosystems) with quantitative Real Time PCR (BioRad CFX) using pre-designed and validated primers specific for genes encoding IL6, IL8, PTGS2/COX2, and MMP3 (BioRad). Relative quantification of these specific genes was calculated by the ΔΔCt method, normalizing their abundance relative to the internal housekeeping gene, GAPDH, followed by quantification relative to the vehicle-treated cells. Statistical analyses and visualizations were performed using a One Way ANOVA with a Tukey's multiple comparison post-hoc test on GraphPad Prism version 9.

The target of data set [9] is T3, JNK3 (Homo sapiens, UniProt P53779). The data set is described as follows: Promega NanoBRET intracellular target engagement (tracer K10 displacement), JNK3. It is filed as cell-based.
Data set [10] deals with T3, JNK3. Nature of the data set: JNK3 kinase (intrinsic ATPase, Kinase-Glo) assay. It is filed as biochemical. The following applies: Table 3a; read-out: Kd JNK3.
Data set [11] deals with immortalized human endometriotic epithelial cells (iHEEC). Nature of the data set: Phosphorylation of JNK and Jun in iHEEC. The data set is classed as cell-based. The text has this:
FIG. 26A depicts the effects of CDD-2728 and CDD-3013 on phosphorylation of the JNK enzyme itself (i.e., representing MEK4 inhibition) and phosphorylation of pSer63 and pSer73 on the transcription factor Jun in immortalized human endometriotic epithelial cells (iHEEC). The HEEC cells are a well characterized cell line that are relevant for the evaluation of inflammatory endpoints and measures of epithelial-to-mesenchymal transitions (EMT). […] This is consistent with the potency relationships of CDD-2728 relative to bentamapimod observed in cytokine gene expression described above in iHEEC cells and primary human stromal endometriotic cells. […] SP600125 has been frequently described as a poorly-selective JNK-I but in this context provides additional confirmation of inhibition of the JNK target kinase for CDD-2728. […] This adds further support to the critical role of JNK-1 to the therapeutic effect of the JNK inhibitors of the disclosure.

The target of data set [12] is T4, CSNK1E (Homo sapiens, UniProt P49674).
T4 construct: purchased ThermoFisher (SelectScreen)
The data set is described as follows: ThermoFisher SelectScreen, CSNK1E. It is filed as binding.

Data set [13] has as its target T3, JNK3. The data set is described as follows: ThermoFisher SelectScreen, JNK3. It is filed as binding.
Data set [14] concerns the target T5, hVPS34 (Homo sapiens, UniProt Q8NEB9).
T5 construct: purchased ThermoFisher (SelectScreen, outsourced service)
The data set is described as follows: ThermoFisher SelectScreen, hVPS34. It is filed as binding. The following applies: Table 4. Here is the method: To mitigate violation of the linear initial velocity principle, which is a problem in end-point assays when doing dose-responses, the enzyme concentration was carefully optimized, in a total assay volume of 25 μL. The assay was performed using 10 μM ATP, 0.02% Tween-20, kinase buffer from Cell Signaling (#9802) in white 384-well plates. The kinase reaction was done for 30 or 60 min at 30° C., and detection of leftover ATP was measured according to Promega's protocol. […] Fractional activities were obtained from normalized data. Non-linear regression (GraphPad Prism7) and a modified Morrison equation for tight binding was used to determine apparent Ki values for inhibitors, assuming no particular mode of inhibition. An orthogonal binding assay (LanthaScreen) was outsourced to ThermoFisher Scientific's SelectScreen Services to determine IC50 values.
One of the earliest compounds to be synthesized with favorable enzymatic activity towards JNK1 and JNK3 was CDD-2346. A KINOMEscan was performed for CDD-2346 to establish whether the selectivity of this chemical scaffold was suitable or required optimization. […] To confirm that the activity against each kinase was a true result and not a false positive, CDD-2346 was evaluated in kinase assays using ThermoFisher SelectScreen platform. The results from these assays are provided herein (Table 4). The important innovative steps described are the optimization of selectivity a) for JNK isoforms; b) for kinases considered “in-pathway”; and c) to avoid kinases considered “out-of-pathway”.

For data set [15], the target named is T6, MEK4 (Homo sapiens, UniProt P45985).
T6 construct: purchased ThermoFisher (SelectScreen)
T6 sequence (P45985 1-399): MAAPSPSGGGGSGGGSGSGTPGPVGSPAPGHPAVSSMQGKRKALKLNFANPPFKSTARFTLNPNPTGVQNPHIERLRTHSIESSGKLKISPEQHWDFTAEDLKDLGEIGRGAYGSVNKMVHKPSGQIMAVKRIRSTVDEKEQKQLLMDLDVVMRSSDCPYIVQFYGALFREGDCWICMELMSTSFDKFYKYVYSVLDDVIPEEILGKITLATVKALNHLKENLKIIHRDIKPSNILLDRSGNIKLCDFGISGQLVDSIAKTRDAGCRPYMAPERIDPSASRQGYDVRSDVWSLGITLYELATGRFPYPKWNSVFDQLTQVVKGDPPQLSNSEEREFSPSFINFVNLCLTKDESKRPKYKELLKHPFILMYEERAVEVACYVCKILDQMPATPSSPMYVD
Nature of the data set: ThermoFisher SelectScreen, MEK4. It is filed as binding.

T3 sequence (P53779 whole entry): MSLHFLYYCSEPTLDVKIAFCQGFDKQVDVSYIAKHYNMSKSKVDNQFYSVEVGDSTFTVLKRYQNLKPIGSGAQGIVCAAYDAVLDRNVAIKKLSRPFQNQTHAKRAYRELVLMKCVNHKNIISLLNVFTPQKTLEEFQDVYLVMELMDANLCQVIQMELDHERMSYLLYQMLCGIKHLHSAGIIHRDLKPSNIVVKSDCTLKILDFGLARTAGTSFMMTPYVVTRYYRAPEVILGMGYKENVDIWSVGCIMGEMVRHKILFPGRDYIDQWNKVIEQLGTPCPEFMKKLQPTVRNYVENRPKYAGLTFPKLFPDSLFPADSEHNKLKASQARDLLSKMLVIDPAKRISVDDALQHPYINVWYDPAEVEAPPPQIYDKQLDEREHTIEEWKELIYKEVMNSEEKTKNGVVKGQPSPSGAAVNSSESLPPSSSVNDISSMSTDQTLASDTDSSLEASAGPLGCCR
T2 sequence (P45984 whole entry): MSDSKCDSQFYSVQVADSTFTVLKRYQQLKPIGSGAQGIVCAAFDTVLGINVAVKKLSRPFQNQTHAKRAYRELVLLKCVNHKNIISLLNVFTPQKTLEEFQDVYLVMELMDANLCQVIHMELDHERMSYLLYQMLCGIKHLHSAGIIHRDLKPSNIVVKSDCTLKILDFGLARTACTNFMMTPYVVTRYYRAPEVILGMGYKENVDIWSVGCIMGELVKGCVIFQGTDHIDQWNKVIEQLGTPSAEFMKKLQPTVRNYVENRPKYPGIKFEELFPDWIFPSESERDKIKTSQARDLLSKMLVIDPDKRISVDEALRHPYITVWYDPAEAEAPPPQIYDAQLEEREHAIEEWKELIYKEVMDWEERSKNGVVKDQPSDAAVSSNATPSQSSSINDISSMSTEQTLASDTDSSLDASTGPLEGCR
T1 sequence (P45983 whole entry): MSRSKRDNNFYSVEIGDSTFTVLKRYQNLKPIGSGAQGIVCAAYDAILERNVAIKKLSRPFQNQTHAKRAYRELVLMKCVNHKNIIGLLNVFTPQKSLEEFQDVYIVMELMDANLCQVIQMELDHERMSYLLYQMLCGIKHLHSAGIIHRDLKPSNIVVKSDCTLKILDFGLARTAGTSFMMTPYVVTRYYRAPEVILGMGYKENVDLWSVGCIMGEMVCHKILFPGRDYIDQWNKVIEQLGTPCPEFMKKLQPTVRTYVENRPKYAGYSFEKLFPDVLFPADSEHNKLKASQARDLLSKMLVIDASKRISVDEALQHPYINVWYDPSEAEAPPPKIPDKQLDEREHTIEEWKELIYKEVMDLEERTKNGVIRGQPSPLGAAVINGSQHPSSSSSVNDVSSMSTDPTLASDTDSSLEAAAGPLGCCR
T4 sequence (P49674 whole entry): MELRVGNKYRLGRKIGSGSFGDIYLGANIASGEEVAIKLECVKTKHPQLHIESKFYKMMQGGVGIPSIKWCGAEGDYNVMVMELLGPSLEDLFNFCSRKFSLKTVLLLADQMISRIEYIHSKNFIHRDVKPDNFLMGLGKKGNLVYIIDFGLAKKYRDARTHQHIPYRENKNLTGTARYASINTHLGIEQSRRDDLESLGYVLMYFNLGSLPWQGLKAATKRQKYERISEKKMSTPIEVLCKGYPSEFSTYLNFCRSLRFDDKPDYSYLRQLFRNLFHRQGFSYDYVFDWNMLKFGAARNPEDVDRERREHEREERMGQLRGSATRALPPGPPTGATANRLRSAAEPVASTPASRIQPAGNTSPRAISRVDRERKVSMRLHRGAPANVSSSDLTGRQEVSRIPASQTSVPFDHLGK
T5 sequence (Q8NEB9 whole entry): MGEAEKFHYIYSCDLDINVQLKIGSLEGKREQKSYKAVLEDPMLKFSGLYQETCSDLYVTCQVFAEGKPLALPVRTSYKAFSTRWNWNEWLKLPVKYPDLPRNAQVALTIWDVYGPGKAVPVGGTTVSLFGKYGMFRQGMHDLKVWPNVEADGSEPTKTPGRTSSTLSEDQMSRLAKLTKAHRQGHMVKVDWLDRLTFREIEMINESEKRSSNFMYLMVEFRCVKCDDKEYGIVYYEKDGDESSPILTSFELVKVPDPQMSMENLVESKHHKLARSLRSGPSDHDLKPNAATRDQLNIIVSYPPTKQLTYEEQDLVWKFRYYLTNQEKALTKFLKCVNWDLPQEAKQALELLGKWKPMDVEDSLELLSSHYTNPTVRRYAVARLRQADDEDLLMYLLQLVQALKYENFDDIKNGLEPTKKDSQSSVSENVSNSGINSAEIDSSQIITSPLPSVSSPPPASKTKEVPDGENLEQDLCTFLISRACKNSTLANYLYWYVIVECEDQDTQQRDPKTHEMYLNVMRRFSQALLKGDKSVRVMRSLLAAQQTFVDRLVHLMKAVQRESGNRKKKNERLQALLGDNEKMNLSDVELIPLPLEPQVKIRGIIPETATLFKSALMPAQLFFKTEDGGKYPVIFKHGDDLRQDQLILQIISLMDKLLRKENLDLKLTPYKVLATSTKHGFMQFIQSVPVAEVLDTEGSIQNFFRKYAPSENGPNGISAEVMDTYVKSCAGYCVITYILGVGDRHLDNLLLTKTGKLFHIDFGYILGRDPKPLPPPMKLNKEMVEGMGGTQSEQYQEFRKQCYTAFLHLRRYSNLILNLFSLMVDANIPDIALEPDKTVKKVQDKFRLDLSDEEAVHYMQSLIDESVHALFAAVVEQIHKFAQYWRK

Take `O=C(Nc1ccc(O)c(C(=O)N2CCCCC2)c1)c1cc2c(-c3cnc4[nH]ccc4c3)cccc2s1` [CDD-2634, N-(4-hydroxy-3-(piperidine-1-carbonyl)phenyl)-4-(1H-pyrrolo[2,3-b]pyridin-5-yl)benzo[b]thiophene-2-carboxamide]: the 50% inhibitory concentration (IC50) was found to be 172 nM in data set [1], 161 nM in [7] and 119 nM in data set [9]. The compound further had a solubility in [2] of 1.1 µM (≈ 0.546 µg/mL). The half-life in data set [3] came to 1.36 h; in data set [5], 0.983 h. The Kd came to 0.29 ± 0.13 nM in data set [4], 1.81 ± 0.19 nM in data set [6] and 2.62 ± 0.28 nM in [10]. The IL-8 expression entry in data set [8] is “more potent inhibitors of IL-8 expression than bentamapimod”.
Turning to `Oc1c2ccccc2c2c3c(cccc13)N=N2` [SP600125, reference compound], in data set [11], the “phosphorylation of JNK1 (P46) and JNK2 (P54)” value was “MEK4-dependent phosphorylation of JNK1 and JNK2”; the “phosphorylation of Jun at pSer63 and pSer73” value is “inhibits pSer63 and pSer73 Jun”.
Turning to `CN(C)C(=O)c1cc(NC(=O)c2nc3c(-c4cnc5[nH]ccc5c4)cccc3s2)ccc1O` [CDD-2856, N-(3-(dimethylcarbamoyl)-4-hydroxyphenyl)-4-(1H-pyrrolo[2,3-b]pyridin-5-yl)benzo[d]thiazole-2-carboxamide], the IC50 in data set [1] amounted to 1000 nM; in [7], 1100 nM; in data set [9] it was 2200 nM. Moreover, the solubility in [2] came to 3.8 µM (≈ 1.74 µg/mL). The half-life was found to be 3.75 h in data set [3] and 0.925 h in data set [5]. The dissociation constant Kd in [4] was determined as 0.27 ± 0.08 nM; in data set [6], 3.14 ± 0.33 nM; in [10] it was 1.03 ± 0.07 nM. The “phosphorylation of JNK1 (P46) and JNK2 (P54)” value in [11] is “inhibits the upstream phosphorylation of JNK1 and JNK2”. The “phosphorylation of Jun at pSer63 and pSer73” value in [11] is listed as “inhibits phosphorylation more effectively than Tanzisertib”.
Take `CNCc1ccc(NC(=O)c2ccn3ncc(-c4cncc5ccccc45)c3c2)cc1` [CDD-2347, 3-(isoquinolin-4-yl)-N-(4-((methylamino)methyl)phenyl)pyrazolo[1,5-a]pyridine-5-carboxamide]: the Kd in [12] came to 3180 nM; in data set [13], 1.38 nM; in data set [4] it was 0.39 ± 0.11 nM; in data set [14], 776 nM; in data set [6], 1.7 ± 0.12 nM; in data set [15], 483 nM. The Kd in data set [10] was determined as 1.38 ± 0.21 nM. Further, the IC50 in [1] was found to be 2200 nM; in data set [7], 990 nM; in data set [9], 2000 nM. In [2], the concentration in solution (solubility) was 134 µM (≈ 54.7 µg/mL). Besides, the figures for the half-life in data set [3] and in data set [5] were 0.505 h and 0.552 h, respectively.
With `CN(C)C(=O)c1cc(NC(=O)c2cc3c(-c4cnc5[nH]ccc5c4)cccc3s2)ccn1` [CDD-3012, 4-(4-(1H-pyrrolo[2,3-b]pyridin-5-yl)benzo[b]thiophene-2-carboxamido)-N,N-dimethylpicolinamide], the values for the IC50 in [1], in data set [7] and in data set [9] were 3800 nM, 3600 nM and 6000 nM, respectively. Moreover, the concentration in solution in data set [2] (solubility) came to 2 µM (≈ 0.883 µg/mL). Also, the half-life in data set [3] turned out to be 9.13 h; in data set [5] it was 1.11 h. Moreover, the results for the Kd in data set [4], in [6] and in data set [10] were 0.52 ± 0.12 nM, 4.84 ± 0.49 nM and 2.08 ± 0.18 nM, respectively.
As to `COc1ccc(NC(=O)c2cc3c(-c4cnc5[nH]ccc5c4)cccc3s2)cc1C(=O)N(C)C` [CDD-2628, N-(3-(dimethylcarbamoyl)-4-methoxyphenyl)-4-(1H-pyrrolo[2,3-b]pyridin-5-yl)benzo[b]thiophene-2-carboxamide], the IC50 stood at 500 nM in data set [1], 520 nM in data set [7] and 566 nM in data set [9]. Also, the solubility in [2] worked out at 7.4 µM (≈ 3.48 µg/mL). For the same compound, the half-life in [3] was 1.64 h; in data set [5], 0.677 h. The Kd in [4] was found to be 1.83 ± 0.26 nM; in [6], 1.6 ± 0.17 nM; in data set [10] it was 0.52 ± 0.05 nM. Besides, in [8], the IL-6 expression result was “concentration-dependent decreases”. Also, the IL-8 expression result in data set [8] is recorded as “improved potency; also recorded: more effective than bentamapimod”. The MMP-3 expression entry in [8] was “improved potency; also recorded: more effective than bentamapimod”. In data set [8], the PTGS2 expression entry is recorded as “concentration-dependent decreases”.
